Test results published in patent US10877024B2, “Methods of determining interferon having direct inhibitory effects on tumors and uses thereof” (SUPERLAB FAR EAST LIMITED, priority 2015, dated 2020).

What was measured:
[1] = system: procaspase-3, cleaved caspase-3, procaspase-8, cleaved caspase-8, PARP; assay: Apoptosis-related molecular markers by Western Blot; type: cell-based, human; settings: A549 and SW620 cells, 24 hr or 48 hr; interferons 10 mcg/ml
Excerpt: Thereafter, apoptosis-related molecular markers were monitored by Western Blot. The primary antibodies used were mouse monoclonal anti-beta-tubulin (1:2000, Cat #: CW0098A) and mouse monoclonal anti-GAPDH (1:2000, Cat #: CW0100A) (Kangwei Biotechnology, China); mouse monoclonal anti-PARP (1:1000, Cat #: sc-2007, Santa Cruz Biotechnology, Inc.); rabbit monoclonal anti-procaspase 3 (1:1000, Cat #: 9665), and rabbit polyclonal anti-cleaved caspase 3 (1:1000, Cat #: 9661) (Cell Signaling Technology, USA); goat polyclonal anti-procaspase 8 (1:1000, Cat #: sc-6136, Santa Cruz Biotechnology, Inc); rabbit monoclonal anti-cleaved caspase 8 (1:1000, Cat #: 9496) (Cell Signaling Technology, USA).

[2] = system: Human Colon Cancer HT-29 Xenografts; assay: rSIFN-co on human colon cancer HT-29 xenografts in nude mice; type: in vivo; settings: 5 mg/kg i.v. days 1 and 10
[3] = system: human hepatoma SMMC-7721 xenografts; assay: rSIFN-co on human hepatoma SMMC-7721 xenografts in nude mice; settings: 5 mg/kg i.v.
Protocol: The test article was used without dilution. It was stored at 4° C. until thawed for injection.
The animals used were 4-6 weeks old male BALB/cA nu/nu mice, weighing about 23±2 g, obtained from the Shanghai Institute of Materia Medica (Shanghai, P.R. China). […] Animals were housed 6 to a cage. They were ear-marked with ear hole punch identification. The room temperature was maintained at 25° C.±+1° C. Lighting was set at 12 hr on and 12 hr off. Food was provided ad libitum. City tap water, filtered with a 5 micrometer (μm) filter, was provided to the animals ad libitum via water bottles.
The test article was administered in a volume of 0.05 ml-0.15 ml per mouse per treatment, depending on the group to which the animal was assigned. […] Normal saline was injected in a volume of 0.15 ml per mouse, which was used as vehicle control.
Animals were assigned to treatment groups randomly. Initially, all animals were placed in one large animal cage. For assignment to the study, they were later separately housed, with 6 animals per cage per treatment group. Groups 1 and 2 are Control groups in which the animals were each administered the vehicle every other day after the first treatment. […] Tumor growth was monitored by measuring the length and width of each tumor twice a week during the course of the study. Each animal was also weighed twice a week during the course of the study.
Before commencement of this study, the xenografts were passaged twice in nude mice. Under sterile conditions, well-grown tumors were cut into 1.5 mm^3 fragments and one such fragment was injected by trocar needle into the right flank of each study animal. […] Individual tumor size (length and width) was measured twice per week with microcalipers. Tumor volume (V) was calculated using the formula: V=(length×width^2)/2. Individual relative tumor volume (RTV) was calculated using the formula: RTV=Vt/V0, where Vt is the tumor volume on the day of measurement and V0 is the tumor volume on the day of first treatment. Therapeutic effect of the test article or control article was expressed in terms of T/C (%), using the formula: T/C (%)=(mean RTV of the treated group/mean RTV of the control group)×100%; and in terms of % Inhibition, using the formula: % Inhibition=100%−T/C %.

[4] = system: Human Cervical Cancer Hela Xenografts; assay: rSIFN-co on human cervical cancer Hela xenografts in nude mice; type: in vivo; settings: 5 mg/kg i.v. days 1 and 13
Protocol: Then 1.5 mm^3 fragments were prepared for s.c. implantation into the animals.

[5] = system: human lung cancer SPC-A4 xenografts; settings: 5 mg/kg i.v. days 1 and 6
Protocol: Under sterile conditions, well-grown tumors were cut into 1.5 mm^3 fragments and one such fragment was injected by trocar needle into the right flank of each study animal. […] Individual tumor size (length and width) was measured twice per week with microcalipers. Tumor volume (V) was calculated using the formula: V=(length×width^2)/2. Individual relative tumor volume (RTV) was calculated using the formula: RTV=Vt/V0, where Vt is the tumor volume on the day of measurement and V0 is the tumor volume on the day of first treatment. Therapeutic effect of the test article or control article was expressed in terms of T/C (%), using the formula: T/C (%)=(mean RTV of the treated group/mean RTV of the control group)×100%; and in terms of % Inhibition, using the formula: % Inhibition=100%−T/C %.
The 1.5 mm^3 fragments were then used for s.c. implantation into the test animals. The body weight of the animals averaged 22±2 g at dose initiation.

SMILES | level of cleaved caspase-3 and cleaved caspase-8 [1] | level of procaspase-3, procaspase-8 and PARP [1] | TV(mm^3, mean ± SD) (D 0) ([2]; day 0) | % Inhibition ([2]; day 28) | T/C (%) ([2]; day 28) | TV(mm^3, mean ± SD) (D 28) ([2]; day 28) | TV(mm^3, mean ± SD) (D 0) ([3]; day 0) | mean body weight ([3]; day 0) | % Inhibition ([3]; day 21) | TV(mm^3, mean ± SD) (D 21) ([3]; day 21) | mean body weight ([3]; day 21) | TV(mm^3, mean ± SD) (D 0) ([4]; day 0) | % Inhibition ([4]; day 28) | T/C (%) ([4]; day 28) | TV(mm^3, mean ± SD) (D 28) ([4]; day 28) | TV(mm^3, mean ± SD) (D 0) ([5]; day 0) | % Inhibition ([5]; day 21) | RTV (mean ± SD) ([5]; day 21) | T/C (%) ([5]; day 21) | TV(mm^3, mean ± SD) (D 21) ([5]; day 21)
O=c1[nH]cc(F)c(=O)[nH]1 [5FU, reference compound] | enhanced level | significant reduction | – | – | – | – | – | – | – | – | – | – | – | – | – | – | – | – | – | –
CO[C@@]12[C@H](COC(N)=O)C3=C(C(=O)C(C)=C(N)C3=O)N1C[C@@H]1N[C@@H]12 [MMC, Mitomycin C, reference compound] | – | – | 132 ± 22 mm^3 | 62.9% | 37.10% | 395 ± 95 mm^3 | 125 ± 35 mm^3 | 23.9 gram | 47.18% | 621 ± 247 mm^3 | 25.4 gram | 130 ± 28 mm^3 | 60.08% | 39.92% | 676 ± 358 mm^3 | 166 ± 42 mm^3 | 72.87% | 11.54 ± 4.37 | 27.13% | 1831 ± 540 mm^3
